US9284315B2, “Three-ring PI3K and/or mTOR inhibitor” (XUANZHU PHARMA CO., LTD., priority 2011, dated 2016)
Values joined by “and” are separate entries in the source; they are usually repeats but may differ in a detail not shown here. Equal values may be shown once.

Assays:
[1] = In vivo pharmacokinetics in rats, gavage (PO); conditions: male, SD, rat, plasma, 4 mg/kg
[2] = In vivo pharmacokinetics in rats, intravenous bolus injection (IV); conditions: 2 mg/kg; for AUC / half-life: male, SD, rat, plasma, iv; for Cl_obs / Vss_obs: rats, IV
SD rats = experiment: Repeated-dose toxicity test in rats; assay type: in vivo; conditions: gavage once daily, 14 days, 20 rats
Description: The test substances were suspended in 0.5% methylcellulose solution to prepare suspensions with a concentration of 0.5 mg/mL, 1.5 mg/mL and 3 mg/mL.
Animals: SD rats, 6-8 weeks old, SPF grade, purchased from Beijing Vital River Laboratory Animal Technology Co., Ltd., licensed […] No: SCXK (Beijing) 2006-0009.
The test substances were administrated as a suspension via gavage, and administrating volume was 10 mL/kg. 0.5% methyl cellulose solution was used in the solvent group, and the administrating volume was 10 mL/kg, administered once daily for consecutive 14 days. Animals were observed daily appearance and general behavior changes.

PI3Kα = PI3Kα (Homo sapiens (Human), UniProt P42336); experiment: PI3K inhibitory activity, Method 1 activity test; assay type: biochemical; conditions: PIP2 50 μM, ATP 25 μM
Description: Determination of the inhibitory activity of PI3K
(§1) 1. Preparation of test reagents
(1) 1× kinase buffer (50 mM HEPES, pH 7.5, 3 mM MgCl2, 1 mM EGTA, 100 mM NaCl, 0.03% CHAPS, 2 mM DTT);
(2) 4× kinase solution (added PI3K a kinase to 1× kinase buffer to provide 4× kinase solution with a final concentration of 1.65 nM);
(3) 2× substrate solution (added the substrates of PIP2 and ATP into 1× kinase buffer to provide 2× substrate solution with PIP2 final concentration of 50 μM and ATP final concentration of 25 μM);
(4) 4× test substance solutions (100× test substance solutions with different concentration gradients were prepared using 100% DMSO, and diluted 25-fold with 1× kinase buffer to give 4× test substance solutions with different concentration gradients);
(5) Invitrogen's activity test kit with the test solution was kept stand to room temperature.
(§2) 2. 2.5 μL of 4× test solution was added to a 384-well plate in parallel;
(§3) 3. added […] of 4× kinase solution and incubated for 10 min;
4. then added 5 μL of 2× solutions of PIP2 and ATP substrates and incubated for 1 h at room temperature;
5. finally, added 10 μL of test solution to quench the reaction, and read after 15 min;
(§4) 6. IC50 value was obtained via curve fitting. Inhibition rate (%)=(sample value−minimum)/(maximum−minimum)×100
Maximum refers to the readings of control wells without enzyme, minimum refers to the readings of DMSO control wells.
(§5) IC50 value was obtained via curve fitting using a soft of Graphpad 5.0.

mTOR = mTOR (Homo sapiens (Human), UniProt P42345); experiment: mTOR inhibitory activity, Method 1 activity test; assay type: biochemical; conditions: 4EBP1 50 nM, ATP 10.8 μM
Description: Determination of the Inhibitory Activity of mTOR
as §1
(1) 1× kinase buffer (50 mM HEPES, pH 7.5, 10 mM MgCl2, 1 mM EGTA, 3 mM MnCl, 0.01% Tween-20, 2 mM DTT);
(2) 4× kinase solution (added mTOR kinase to 1× kinase buffer to provide 4× kinase solution with a final concentration of 2.5 nM);
(3) 2× substrate solution (added the substrates of 4EBP1 and ATP into 1× kinase buffer to provide 2× substrate solution with 4EBP1 final concentration of 50 nM and ATP final concentration of 10.8 μM);
(4) 4× test substance solutions (100× test substance solutions with different concentration gradients were prepared using 100% DMSO, and diluted 25-fold with 1× kinase buffer to give 4× test substance solutions with different concentration gradients)
(5) preparation of test solution (test solution containing EDTA and 4EBP1 phosphorylated antibody was prepared using activity test kit with assay buffer, the final concentration of EDTA was 8 mM, and the final concentration of 4EBP1 phosphorylated antibody was 2 nM)
as §2, §3
4. then added 5 μL of 2× solutions of 4EBP1 and ATP substrates and incubated for 1 h at room temperature;
5. finally, added 10 μL of test solution to quench the reaction, and read after 60 min;
as §4
Minimum refers to the readings of control wells without enzyme, maximum refers to the readings of DMSO control wells.
as §5

U87MG = experiment: Cell viability assay by XTT method, U87MG; assay type: cell-based; conditions: Homo sapiens, U-87 MG
Description: (§6) 1. Preparation of Reagents and Compounds
(§7) 2) Preparation of XTT test working solution:
(§8) 100 mg of tetrazolium salt (XTT) powder was weighed and dissolved in dark in 300 mL of phenol red-free serum-free RPMI1640 medium heated to 50° C., filtered and subpackaged, used immediately or within a week. All process should be conducted in dark.
(§9) 3) Preparation of test compounds
(§10) preparation of stock solutions of the test substances: the powder of test substances was dissolved in DMSO in a concentration of 10 mM.
(§11) preparation of gradiently diluted stock solutions of test substances: First, 10 mM of the stock solutions of test substances were diluted serially in 4-fold with DMSO to 10 concentrations. 2 μL of DMSO-diluted solution for each compound was taken and added to 998 μL of culture medium containing 10% fetal bovine serum (FBS). The highest concentration of the test substances was 20 μM, the concentration of DMSO was 0.2%, and there were 10 concentration gradients in total.
(§12) 1) Preparation of cell suspension
(§13) The culture medium was discarded from the flask, and the cells were washed twice with PBS. Added trypsinase to digest the cell and then collected by centrifugation, resuspended with a medium containing 10% FBS, counted and adjusted to an appropriate concentration (cell viability must be greater than 90%). The cell concentration was […].
(§14) 2) The cell suspension was added to 96-well plates, each well 100 μL.
(§15) 3) Incubated in a cell incubator overnight at 37° C., 5% CO2.
(§16) Added compound diluted 2-fold to the cell culture plates, three repeated in total, 100 μL well.
(§17) 5. Cell Viability Assay by XTT Method
(§18) Discarded the culture medium, added XTT test working liquid in an amount of 150 μL well, and kept in a cell incubator at 37° C., 5% CO2 for 2 h, then placed into a microplate reader and read the absorbance at 450 nm.
(§19) 1) The percentage of inhibition was calculated using the following formula: Inhibition rate (%)=(reading(solvent)−reading(compound))/reading(solvent)−reading(positive control))×100
(§20) 2) The data was entered into GraphPad Prism 5.0 and plotted to obtain the curve and IC50.

SKOV-3 = experiment: Cell viability assay by XTT method, SKOV-3; assay type: cell-based; conditions: Homo sapiens, SK-OV-3
Description: as §6, §7, §8, §9, §10, §11, §12, §13, §14, §15, §16, §17, §18, §19, §20

Sequence of PI3Kα (P42336 whole entry): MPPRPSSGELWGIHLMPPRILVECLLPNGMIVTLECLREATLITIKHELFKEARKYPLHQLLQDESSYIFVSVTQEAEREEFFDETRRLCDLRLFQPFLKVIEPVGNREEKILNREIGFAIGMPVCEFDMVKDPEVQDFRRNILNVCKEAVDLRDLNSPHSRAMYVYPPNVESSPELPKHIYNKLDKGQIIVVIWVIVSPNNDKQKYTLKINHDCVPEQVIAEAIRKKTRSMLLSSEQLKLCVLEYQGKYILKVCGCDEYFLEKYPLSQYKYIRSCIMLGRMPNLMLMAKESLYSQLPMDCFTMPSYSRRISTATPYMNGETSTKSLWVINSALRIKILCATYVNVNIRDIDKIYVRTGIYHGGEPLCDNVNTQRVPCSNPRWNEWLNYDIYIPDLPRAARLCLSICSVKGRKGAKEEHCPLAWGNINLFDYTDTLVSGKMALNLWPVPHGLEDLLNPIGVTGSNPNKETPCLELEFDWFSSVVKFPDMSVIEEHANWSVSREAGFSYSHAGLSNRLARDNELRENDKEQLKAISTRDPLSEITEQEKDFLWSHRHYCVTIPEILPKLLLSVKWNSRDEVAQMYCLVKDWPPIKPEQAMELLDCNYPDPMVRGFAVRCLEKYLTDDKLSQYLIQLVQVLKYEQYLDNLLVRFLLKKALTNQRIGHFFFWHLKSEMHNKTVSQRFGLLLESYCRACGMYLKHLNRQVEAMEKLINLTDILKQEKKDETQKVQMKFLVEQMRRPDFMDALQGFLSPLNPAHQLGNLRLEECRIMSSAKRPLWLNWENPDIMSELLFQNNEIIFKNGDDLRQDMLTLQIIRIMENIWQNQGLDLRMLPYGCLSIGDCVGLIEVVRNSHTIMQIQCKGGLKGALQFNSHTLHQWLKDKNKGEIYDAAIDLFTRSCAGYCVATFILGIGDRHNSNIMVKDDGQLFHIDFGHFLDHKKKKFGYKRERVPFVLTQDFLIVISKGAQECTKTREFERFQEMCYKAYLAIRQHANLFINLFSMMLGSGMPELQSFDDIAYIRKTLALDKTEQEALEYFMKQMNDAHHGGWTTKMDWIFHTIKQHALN
Sequence of PI3Kα (P27986 whole entry partner): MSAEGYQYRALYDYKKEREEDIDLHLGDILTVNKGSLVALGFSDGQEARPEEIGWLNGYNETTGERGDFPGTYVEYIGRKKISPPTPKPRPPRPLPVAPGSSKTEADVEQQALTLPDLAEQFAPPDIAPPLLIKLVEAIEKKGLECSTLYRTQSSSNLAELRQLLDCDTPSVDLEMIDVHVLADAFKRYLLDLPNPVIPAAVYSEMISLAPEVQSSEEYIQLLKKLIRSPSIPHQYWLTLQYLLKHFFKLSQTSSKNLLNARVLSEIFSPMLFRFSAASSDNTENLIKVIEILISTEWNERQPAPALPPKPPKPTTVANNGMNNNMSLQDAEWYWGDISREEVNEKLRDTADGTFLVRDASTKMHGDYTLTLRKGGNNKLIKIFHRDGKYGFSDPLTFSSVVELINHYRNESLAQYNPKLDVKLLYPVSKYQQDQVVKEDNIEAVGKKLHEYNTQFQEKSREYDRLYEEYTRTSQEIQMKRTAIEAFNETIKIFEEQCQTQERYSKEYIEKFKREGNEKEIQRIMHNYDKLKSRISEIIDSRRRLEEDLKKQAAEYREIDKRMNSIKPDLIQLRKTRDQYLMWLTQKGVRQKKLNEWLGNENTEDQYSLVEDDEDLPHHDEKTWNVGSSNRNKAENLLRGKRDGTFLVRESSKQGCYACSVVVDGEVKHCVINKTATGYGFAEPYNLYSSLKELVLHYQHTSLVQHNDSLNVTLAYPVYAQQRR

| AUC [2] [ng·h/mL] | half-life [2] [h] | Cl_obs [2] [mL/min/kg] | Vss_obs [2] [L/kg] | IC50 (PI3Kα) [nM] | IC50 (mTOR) [nM] | IC50 (U87MG) [nM] | IC50 (SKOV-3) [nM] | SMILES | other results |
| --- | --- | --- | --- | --- | --- | --- | --- | --- | --- |
| 1440 | 3.19 | 23 | 5.93 |  |  |  |  | Cn1c(=O)n(-c2ccc(C(C)(C)C#N)cc2)c2c3cc(-c4cnc5ccccc5c4)ccc3ncc21 [BEZ-235, reference compound] | AUC [1]: 2180 ng·h/mL; Cmax [1]: 229 ng/mL; Tmax [1]: 2.83 h; bioavailability [1]: 77.4%; half-life [1]: 4.08 h; hair loss (animals affected) (SD rats; high dose 30 mg/kg/day): three and 3/20; lassitude (animals affected) (SD rats; high dose 30 mg/kg/day): 0/20; loose stools (animals affected) (SD rats; high dose 30 mg/kg/day): fifteen and 15/20; hair loss (animals affected) (SD rats; low dose 5 mg/kg/day): 0/20; lassitude (animals affected) (SD rats; low dose 5 mg/kg/day): 0/20; loose stools (animals affected) (SD rats; low dose 5 mg/kg/day): six and 6/20; hair loss (animals affected) (SD rats; middle dose 15 mg/kg/day): 0/20; lassitude (animals affected) (SD rats; middle dose 15 mg/kg/day): 0/20; loose stools (animals affected) (SD rats; middle dose 15 mg/kg/day): seven and 7/20 |
| 1520 | 4.8 | 21.7 | 8.72 | 41.9 | 1.99 |  |  | COc1ccc(-c2ccc3ncc4c(c3c2)n(-c2ccc(N3CCNCC3)c(C(F)(F)F)c2)c(=O)n4C)cn1 [BGT-226, reference compound] | AUC [1]: 852 ng·h/mL; Cmax [1]: 61.1 ng/mL; Tmax [1]: 6 h; bioavailability [1]: 28% |
|  |  |  |  | 88.4 | 54.3 |  |  | COc1ccc(-c2ccc3ncc4c(c3n2)N(c2cccc(C(F)(F)F)c2)C(=O)N(C)C4)cn1 [Compound 2] |  |
|  |  |  |  | 33.8 | 24 |  |  | CN1Cc2cnc3ccc(-c4ccc(C#N)nc4)nc3c2N(c2cccc(C(F)(F)F)c2)C1=O [Compound 6] |  |
| 275 | 0.47 | 124 | 4.45 | 29.3 | 38.7 | 901 | 895 | CC(=O)Nc1ccc(-c2ccc3ncc4c(c3n2)N(c2cccc(C(F)(F)F)c2)C(=O)N(C)C4)cn1 [Compound 7, N-(5-(3-methyl-2-oxo-1-(3-(trifluoromethyl)phenyl)-1,2,3,4-tetrahydropyrimido[5,4-c][1,5]naphthyridin-9-yl)pyridin-2-yl)acetamide] | AUC [1]: 63.4 ng·h/mL; Cmax [1]: 34.9 ng/mL; Tmax [1]: 0.5 h; bioavailability [1]: 11.6%; half-life [1]: 1.7 h |
|  |  |  |  | 260 | 76.5 |  |  | CSc1ccc(-c2ccc3ncc4c(c3n2)N(c2cccc(C(F)(F)F)c2)C(=O)N(C)C4)cn1 [Compound 8] |  |
|  |  |  |  | 873 | 43.7 |  |  | CN1Cc2cnc3ccc(-c4ccc(-n5cccn5)nc4)nc3c2N(c2cccc(C(F)(F)F)c2)C1=O [Compound 9] |  |
|  |  |  |  | 496 | 31.2 |  |  | CN1CCN(c2ccc(-c3ccc4ncc5c(c4n3)N(c3cccc(C(F)(F)F)c3)C(=O)N(C)C5)cn2)CC1 [Compound 11] |  |
|  |  |  |  | 21 | 30.3 |  |  | COc1ncc(-c2ccc3ncc4c(c3n2)N(c2cccc(C(F)(F)F)c2)C(=O)N(C)C4)cn1 [Compound 13] |  |
| 357 | 0.72 | 92.8 | 5.28 | 10.2 | 17.5 | 275 | 551 | CN1Cc2cnc3ccc(-c4cnc5[nH]ccc5c4)nc3c2N(c2cccc(C(F)(F)F)c2)C1=O [Compound 22, 3-methyl-9-(1H-pyrrolo[2,3-b]pyridin-5-yl)-1-(3-(trifluoromethyl)phenyl)-3,4-dihydropyrimido[5,4-c][1,5]naphthyridin-1(2H)-one] |  |
|  |  |  |  |  |  | 499 | 349 | COc1ccc(-c2ccc3ncc4c(c3n2)N(c2ccc(C(C)(C)C#N)cc2)C(=O)N(C)C4)cn1 [Compound 30, 2-(4-(9-(6-methoxypyridin-3-yl)-3-methyl-2-oxo-3,4-dihydropyrimido[5,4-c][1,5]naphthyridin-1(2H)-yl)phenyl)-2-methylpropionitrile] |  |
|  |  |  |  | 154 | 66.5 | 436 | 467 | CN1Cc2cnc3ccc(-c4cnc5ccccc5c4)nc3c2N(c2ccc(C(C)(C)C#N)cc2)C1=O [Compound 52] |  |
|  |  |  |  |  |  | 279 | 542 | CN1Cc2cnc3ccc(-c4cnc5ccccc5c4)nc3c2N(c2ccc(N3CCNCC3)c(C(F)(F)F)c2)C1=O [Compound 80] |  |
